Data reported in paper PMC8752633 (2022).

Experiments:
[1] = tested on: Can preQ1-II riboswitch WT (RNA, riboswitch) UGUGGUUCGCAACCAUCCCACAUAAAAAAACUAG; assay: ITC (PEAQ-ITC, single-sites model); settings: 100 mM Na+ (NaCl), 4 mM Mg2+; 50 mM Na-HEPES pH 7.0, 25 °C; apparent; average over two cooperative sites
[2] = tested on: Can preQ1-II riboswitch C17U (RNA, riboswitch) UGUGGUUCGCAACCAUUCCACAUAAAAAAACUAG; assay: ITC (VP-ITC, two interdependent non-equivalent sites model); settings: 100 mM Na+ (NaCl), 4 mM Mg2+; 50 mM Na-HEPES pH 7.0, 25 °C; macroscopic, second binding event (KD1 3.13 µM)
[3] = tested on: Ngo riboswitch WT (RNA, riboswitch) CGCGGUUCGCAAACCUCCCGCGUUACCAAAACUAG; assay: ITC (PEAQ-ITC, single-sites model); settings: 100 mM Na+ (NaCl), 4 mM Mg2+; 50 mM Na-HEPES pH 7.0, 25 °C; apparent; average over two cooperative sites
[4] = tested on: Hin riboswitch WT (RNA, riboswitch) GUAGUUCGCAAACCUCCUACAAUAAAAAACUAG; assay: ITC (PEAQ-ITC, single-sites model); settings: 100 mM Na+ (NaCl), 4 mM Mg2+; 50 mM Na-HEPES pH 7.0, 25 °C; apparent; average over two cooperative sites
[5] = tested on: Can preQ1-II riboswitch C31U (RNA, riboswitch) UGUGGUUCGCAACCAUCCCACAUAAAAAAAUUAG; assay: ITC (VP-ITC, two interdependent non-equivalent sites model); settings: 100 mM Na+ (NaCl), 4 mM Mg2+; 50 mM Na-HEPES pH 7.0, 25 °C; macroscopic, first binding event (KD2 10.26 µM)
[6] = tested on: Can preQ1-II riboswitch WT (RNA, riboswitch) UGUGGUUCGCAACCAUCCCACAUAAAAAAACUAG; assay: X-ray crystallography, 2.60 Å; settings: 80 mM K+ (KCl), 12 mM Na+ (NaCl), 2 mM hexammine cobalt(III); 40 mM sodium cacodylate pH 5.5, 30% MPD, 20 °C; folded with Mg2+

Question: Which results are given for `NCc1c[nH]c2nc(N)[nH]c(=O)c12`?
Answer: KD, app [1]: 32.0 ± 2.0 nM; KD2 [2]: 1.30 µM; KD, app [3]: 50.5 ± 1.3 nM; KD, app [4]: 52.9 ± 0.2 nM; KD1 [5]: 6.64 µM; binding [6]: yes
